Where a name gives a salt, the structure may show the parent alone. Read-outs that look alike come from different tables or passages of the source.

The source of these data is patent US12264163B2, “Compounds and methods for treating fibrotic pathologies” (Mayo Foundation for Medical Education and Research, priority 2019, dated 2025).

Series [1] concerns YAP/TAZ. The series can be described thus: YAP/TAZ nuclear localization in IPF patient-derived lung fibroblasts treated with dopaminergic agonists. The class given is cell-based, human. The settings on record: 10 μM, 2 hours. The method, boiled down:
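Fibroblasts from IPF patients (N=4 patient samples) were exposed to dopaminergic agonists at 10 μM for 2 h before fixation. Cells were immunostained for YAP/TAZ with DAPI counterstain and imaged at 4×. Percent nuclear YAP/TAZ localization was quantified by automated image analysis.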

In series [2] the test system is αSMA. The series can be described thus: αSMA intensity (fibroblast activation) in IPF patient-derived lung fibroblasts + TGFβ, dopaminergic agonist library. The class given is cell-based, human. To be noted: Homo sapiens, SMA, 72 h, 1 μM + TGFβ, read-out: αSMA intensity (% of DMSO control). An outline of the steps: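 Cells under the indicated conditions were immunostained overnight for αSMA (1:200), with fluorescent secondary antibodies and DAPI. Imaged by fluorescence microscopy. […]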

The conditions of series [3]: cited from earlier work.
In series [4] the test system is αSMA. The series can be described thus: Fibroblast activation: αSMA intensity in TGFβ-stimulated adult lung fibroblasts. The class given is cell-based. To be noted: Homo sapiens, SMA, 2 ng/mL TGFβ 96 hours, compound every 48 hours. On the procedure: FIG. 70 contains a line plot showing that compound CTC-3 inhibits fibroblast activation. Adult lung fibroblasts plated into 96-well plates, stimulated with 2 ng/mL TGFβ for 96 hours and treated with the indicated concentration of compounds every 48 hours. Imaging and quantification of αSMA intensity performed through automation using a Cytation 5. (IC50 is 0.3 μM).
FIG. 71 contains a line plot showing that compound CTC-6 inhibits fibroblast activation. Adult lung fibroblasts plated into 96-well plates, stimulated with 2 ng/mL TGFβ for 96 hours and treated with the indicated concentration of compounds every 48 hours. Imaging and quantification of αSMA intensity performed through automation using a Cytation 5.
FIG. 91A contains a line plot showing that compound 1 inhibits fibroblast activation. Adult lung fibroblasts plated into 96-well plates, stimulated with 2 ng/mL TGFβ for 96 hours and treated with the indicated concentration of compounds every 48 hours. Imaging and quantification of αSMA intensity performed through automation using a Cytation 5.
Alpha-smooth muscle actin (αSMA) staining is a well-defined marker of fibroblast activation observed in wound healing and tissue fibrosis. […] Imaging and quantification of αSMA intensity performed through automation using a Cytation 5.

For a further series, the system named is lung fibroblasts. The series can be described thus: Fibroblast proliferation (counting DAPI nuclei). The class given is cell-based, human. The settings on record: adult lung fibroblasts, 2 ng/mL TGFβ, DAPI nuclei count. On the procedure:
IPF fibroblast and Normal lung fibroblast co-culture proliferation. Cell are prelabelled with fluorescent dyes (red and green) and then cocultured at a ratio of about 1:1 in 96 well plates. Cell counts are determined every 24 hours and plotted as a ratio of IPF/HLF cells. In the control wells the IPF cells outgrow and take over the well. N=2.
Proliferation of lung fibroblasts (IMR-90 cells) measured for 4 days in the presence of GPCR agonists ET-1 (100 nM) and LPA (10 μM)+/−10 μM DHX. Cells were fixed and counted with DAPI at the end of each day. N=3 technical triplicates.
Adult lung fibroblasts plated into 96-well plates, stimulated with 2 ng/mL TGFβ and compounds at the indicated concentration. Proliferation determined by fixing and counting DAPI nuclei using a Cytation 5. N=2.
Fibroblasts were stimulated with 2 ng/mL TGFβ and treated with compound 1 (MS-9) at the indicated concentration (0.1 μM, 1 μM, and 10 μM). Proliferation determined by fixing and counting DAPI nuclei using a Cytation.

A further series concerns Collagen I. The series can be described thus: Collagen I deposition by TGFβ-stimulated adult lung fibroblasts (LI-COR Odyssey). The class given is cell-based. The settings on record: Homo sapiens, Fibroblast, 2 ng/mL TGFβ 96 hours, compound every 48 hours. On the procedure: FIG. 72 contains a line plot showing that compound CTC-3 inhibits Collagen I deposition. Adult lung fibroblasts plated into 96-well plates, stimulated with 2 ng/mL TGFβ for 96 hours and treated with the indicated concentration of compounds every 48 hours. Imaging and quantification of Collagen I intensity performed through automation using a LI-COR Odyssey.
FIG. 73 contains a line plot showing that compound CTC-6 inhibits Collagen I deposition. Adult lung fibroblasts plated into 96-well plates, stimulated with 2 ng/mL TGFβ for 96 hours and treated with the indicated concentration of compounds every 48 hours. Imaging and quantification of Collagen I intensity performed through automation using a LI-COR Odyssey. (IC50 is 0.4 μM).
FIG. 91B contains a line plot showing that compound 1 inhibits Collagen I deposition. Adult lung fibroblasts plated into 96-well plates, stimulated with 2 ng/mL TGFβ for 96 hours and treated with the indicated concentration of compounds every 48 hours. Imaging and quantification of Collagen I intensity performed through automation using a LI-COR Odyssey.
Imaging and quantification of collagen I intensity performed through automation using a LI-COR Odyssey.

Series [5] deals with YAP/TAZ. The series can be described thus: YAP/TAZ nuclear localization in adult lung fibroblasts, dose response (Cytation 5). The class given is cell-based. The settings on record: Homo sapiens, Fibroblast, 2 h, adult lung fibroblasts sparsely plated, treated 2 hours; read-out: IC50, inhibition of YAP/TAZ nuclear localization. On the procedure:
Adult lung fibroblasts (N=2) sparsely plated into 96-well plates. Treated for 2 hours with compounds prior to fixing and immunostaining for YAP/TAZ.
(§1) Immunofluorescence Microscopy: Cells were plated into 96 well plates (Corning 3603) in their specific growth media and allowed to attach (8 hours). Media was then exchanged for the indicated conditions for each experiment. Cells were fixed in 3.7% formalin (Sigma-Aldrich), permeabilized in 0.25% Triton X-100 (Sigma-Aldrich) and then blocked with 1% BSA for 1 h. Cells or tissue sections were incubated overnight with mouse monoclonal antibody against αSMA (Sigma-Aldrich F3777), and/or a rabbit monoclonal antibody against YAP/TAZ (Cell Signaling D24E4) diluted 1:200 in PBS with 1% BSA. Cells were then washed and exposed to flourescence-conjugated secondary antibodies (Invitrogen) diluted 1:1000 and DAPI (Thermo Fisher Scientific). Images were taken with a Cytation5 (BioTek) microscope. For scoring αSMA positive cells (FIG. 12), an observer blinded to the treatment conditions counted αSMA-positive cells using a visual threshold for bright fibrous staining; a minimum of 200 cells was counted for each condition. YAP/TAZ localization was quantified (FIGS. 6-10, 24-26, and 29-30) using Gen5 (Biotek) software. Images were taken at 4× magnification of both DAPI and YAP/TAZ staining. […] Quantification of double positive (YAP/TAZ and αSMA) cells from lung tissue sections (FIG. 17-21) was performed similarly; however separate thresholds were established for both YAP/TAZ and αSMA. A minimum of 4000 cells was quantified for each mouse.

The subject of series [6] is YAP/TAZ. The series can be described thus: YAP/TAZ nuclear localization in IMR-90 and other fibroblasts / mesenchymal cells (immunofluorescence). The class given is cell-based, human. The settings on record: fibroblasts / mesenchymal cells on plastic, 2 hours. On the procedure: Selective agonists of dopamine receptor D1 with varying efficacy inhibit YAP/TAZ nuclear localization; this effect can be overcome by treatment with a DRD1 receptor antagonist (SCH 39166, 3 μM), (Dihydrexidine, 10 μM). IMR-90 cells treated 2 hours prior to fixation. N=4 (****p<0.0001 vs. 0.10% DMSO vehicle control). Scale bar represents 100 μm.
In each case DHX treatment (10 μM) can reverse this effect on YAP/TAZ. IMR-90 cells plated densely onto plastic cell culture plates for 24 hours in media containing 0.1% FBS, treated for 2 hours prior to fixation. N=4 (****p<0.0001 vs. 0.1% DMSO vehicle control), (++++p<0.0001 vs. the respective stimulated agonist ET-1, LPA, or 5-HT). Scale bar represents 100 μm.
Mesenchymal cells derived from lung (IMR-90 and IPF-FBs) hepatic stellate cells (HSC), human adult cardiac fibroblasts, (HACF) and human dermal fibroblasts (HDF) were plated densely (Confluent) or sparsely (Control and all remaining conditions) onto plastic cell culture plates for 24 hours in media containing 0.10% FBS, treated for 2 hours with Rho kinase inhibitor Y27632, adenylate cyclase activator forskolin and DHX. N=4, Cells that were positive for nuclear YAP/TAZ were quantified by automated image analysis.
as §1

As for `CN1CCc2cccc3c2[C@H]1Cc1ccc(O)c(O)c1-3` [(R)-(−)-Apomorphine•HCl, (R)-(−)-Apomorphine], the “Nuclear localization (% of total cells)” value in the series on YAP/TAZ [1] (IPF-1 patient fibroblasts) is listed as 29.21 % of total cells; in the series with YAP/TAZ [1] (IPF-2 patient fibroblasts) it was 31.97 % of total cells; in the series on YAP/TAZ [1] (IPF-3 patient fibroblasts) it was 27.47 % of total cells; in the series on YAP/TAZ [1] (IPF-4 patient fibroblasts), 17.86 % of total cells. In addition, the activity at 1 µM in the series on αSMA [2] (IPF-1 patient fibroblasts) worked out at 7.07%; in the series with αSMA [2] (IPF-2 patient fibroblasts), 1.17%; with αSMA [2] (IPF-3 patient fibroblasts), 0.962%; in the series on αSMA [2] (IPF-4 patient fibroblasts) it was 33.7%. The “oxidation / stability at physiological pH” value in series [3] is “oxidized into the inactive quinone”.
With `NCC1OC(C2CCOCC2)Cc2c1ccc(O)c2O` (stereo not shown) [CTC-3], the IC50 stood at 300 nM with αSMA [4] and 700 nM in the series on Collagen I. Also, in the series on lung fibroblasts, the fibroblast proliferation result is listed as “inhibits fibroblast proliferation”.
For `NCC1OC(c2ccncc2)Cc2c1ccc(O)c2O` (stereo not shown) [CTC-6], the IC50 with αSMA [4] is 100 nM; in the series on Collagen I, 400 nM; with YAP/TAZ [5] it was 62 nM. In addition, the fibroblast proliferation result in the series on lung fibroblasts is on record as “inhibits fibroblast proliferation”.
`Oc1ccc(C2CNCCc3c2cc(O)c(O)c3Cl)cc1` (stereo not shown) [Fenoldopam•HCl, Fenoldopam]: the “Nuclear localization (% of total cells)” value is given as 68.1 % of total cells in the series on YAP/TAZ [1] (IPF-1 patient fibroblasts), 50.32 % of total cells in the series with YAP/TAZ [1] (IPF-2 patient fibroblasts), 66.64 % of total cells in the series on YAP/TAZ [1] (IPF-3 patient fibroblasts) and 63 % of total cells with YAP/TAZ [1] (IPF-4 patient fibroblasts). Besides, in the series with YAP/TAZ [6], the YAP/TAZ nuclear localization result is “reduced nuclear localization of YAP/TAZ”. In addition, the “oxidation / stability at physiological pH” value in series [3] is listed as “stable at physiological pH”.
